In PubChem BioAssay AID1963964 (Molecular Pharmacology Branch, DTP, NCI, 2024):
pIC50: −log10 of the molar value.

Test system: 997726-040-R-J2-PDC tumor spheroids, viability
Assay: Anticancer human tumor 997726-040-R-J2-PDC patient-derived squamous cell lung carcinoma cell line growth inhibition [PI3K]
Conditions: spheroids with HUVEC and MSC; for pIC50: curve of first compound; for viability, T/C: stronger effect = lower value; active = viability on the fitted dose curve at most 10% of control; inactive = the rest
Outline: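 Agents were dosed from a top concentration near clinical Cmax (otherwise 10 microM) in half-log decrements, alone or combined with PI3K inhibitors. The spheroids contain tumor cells plus endothelial (HUVEC) and MSC stroma; viability is measured.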

[1] = second compound 0.00316 µM, first compound 0.0316 µM
[2] = second compound 0.00316 µM, first compound 0.1 µM
[3] = second compound 0.00316 µM, first compound 0.316 µM
[4] = second compound 0.00316 µM, first compound 1 µM
[5] = second compound 0.01 µM, first compound 0.0316 µM
[6] = second compound 0.01 µM, first compound 0.1 µM
[7] = second compound 0.01 µM, first compound 0.316 µM
[8] = second compound 0.01 µM, first compound 1 µM
[9] = second compound 0.0316 µM, first compound 0.0316 µM
[10] = second compound 0.0316 µM, first compound 0.1 µM
[11] = second compound 0.0316 µM, first compound 0.316 µM
[12] = second compound 0.0316 µM, first compound 1 µM
[13] = second compound 0.1 µM, first compound 0.0316 µM
[14] = second compound 0.1 µM, first compound 0.1 µM
[15] = second compound 0.1 µM, first compound 0.316 µM
[16] = second compound 0.1 µM, first compound 1 µM
[17] = second compound 0.316 µM, first compound 0.0316 µM
[18] = second compound 0.316 µM, first compound 0.1 µM
[19] = second compound 0.316 µM, first compound 0.316 µM
[20] = second compound 0.316 µM, first compound 1 µM
[21] = second compound 1 µM, first compound 0.0316 µM
[22] = second compound 1 µM, first compound 0.1 µM
[23] = second compound 1 µM, first compound 0.316 µM
[24] = second compound 1 µM, first compound 1 µM
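Also: spheroids exposed to compounds for seven days before readout.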

CC(C)NCC(C(=O)N1CCN(c2ncnc3c2C(C)CC3O)CC1)c1ccc(Cl)cc1 (centres undefined) + CC(Nc1ccc2c(c1)OCCn1cc(N3C(=O)OCC3C(F)F)nc1-2)C(N)=O
6.83: pIC50 (second compound 0.0316 µM)
7.45: pIC50 (second compound 0.1 µM)
inactive: viability, T/C [1] 77.7% | viability, T/C [2] 68.9% | viability, T/C [3] 45.2% | viability, T/C [4] 27.8% | viability, T/C (second compound 0.00316 µM, first compound 3.16 µM) 10.2% | viability, T/C [5] 71.5% | viability, T/C [6] 65.8% | viability, T/C [7] 41.3% | viability, T/C [8] 30.3% | viability, T/C (second compound 0.01 µM, first compound 3.16 µM) 10.5% | viability, T/C [9] 53.3% | viability, T/C [10] 57.7% | viability, T/C [11] 41.3% | viability, T/C [12] 26.6% | viability, T/C (second compound 0.0316 µM, first compound 3.16 µM) 12.4% | viability, T/C [13] 52.1% | viability, T/C [14] 37.7% | viability, T/C [15] 31.4% | viability, T/C [16] 22.4% | viability, T/C (second compound 0.1 µM, first compound 3.16 µM) 11.2% | viability, T/C [17] 34.7% | viability, T/C [18] 28.8% | viability, T/C [19] 24.6% | viability, T/C [20] 20.6% | viability, T/C (second compound 0.316 µM, first compound 3.16 µM) 10.6% | viability, T/C [21] 26.2% | viability, T/C [22] 23.6% | viability, T/C [23] 23.4% | viability, T/C [24] 16.5% | viability, T/C (second compound 1 µM, first compound 3.16 µM) 8.21%
> 7.50: pIC50 (second compound 0.316 µM) | pIC50 (second compound 1 µM)
6.57: pIC50 (second compound 0.00316 µM)
6.63: pIC50 (second compound 0.01 µM)
active: viability, T/C (second compound 0.00316 µM, first compound 10 µM) 9.8% | viability, T/C (second compound 0.01 µM, first compound 10 µM) 7.89% | viability, T/C (second compound 0.0316 µM, first compound 10 µM) 8.75% | viability, T/C (second compound 0.1 µM, first compound 10 µM) 6.81% | viability, T/C (second compound 0.316 µM, first compound 10 µM) 5.02% | viability, T/C (second compound 1 µM, first compound 10 µM) 5.34%

CCN1CCN(Cc2ccc(Nc3ncc(F)c(-c4cc(F)c5nc(C)n(C(C)C)c5c4)n3)nc2)CC1 + CC(Nc1ccc2c(c1)OCCn1cc(N3C(=O)OCC3C(F)F)nc1-2)C(N)=O
> 8.50: pIC50 (second compound 0.1 µM) | pIC50 (second compound 0.316 µM) | pIC50 (second compound 1 µM)
inactive: viability, T/C (second compound 0.00316 µM, first compound 0.00316 µM) 79% | viability, T/C (second compound 0.00316 µM, first compound 0.01 µM) 79.8% | viability, T/C [1] 72.7% | viability, T/C [2] 58.5% | viability, T/C [3] 59.4% | viability, T/C [4] 62.3% | viability, T/C (second compound 0.01 µM, first compound 0.00316 µM) 79.8% | viability, T/C (second compound 0.01 µM, first compound 0.01 µM) 77.3% | viability, T/C [5] 60.7% | viability, T/C [6] 62.6% | viability, T/C [7] 55.4% | viability, T/C [8] 48.1% | viability, T/C (second compound 0.0316 µM, first compound 0.00316 µM) 55% | viability, T/C (second compound 0.0316 µM, first compound 0.01 µM) 54.6% | viability, T/C [9] 45.9% | viability, T/C [10] 37.7% | viability, T/C [11] 40.4% | viability, T/C [12] 43.4% | viability, T/C (second compound 0.1 µM, first compound 0.00316 µM) 44.7% | viability, T/C (second compound 0.1 µM, first compound 0.01 µM) 38.1% | viability, T/C [13] 34.6% | viability, T/C [14] 30.5% | viability, T/C [15] 32.5% | viability, T/C [16] 32.3% | viability, T/C (second compound 0.316 µM, first compound 0.00316 µM) 33.4% | viability, T/C (second compound 0.316 µM, first compound 0.01 µM) 29.6% | viability, T/C [17] 26.4% | viability, T/C [18] 22% | viability, T/C [19] 23.9% | viability, T/C [20] 23.1% | viability, T/C (second compound 1 µM, first compound 0.00316 µM) 29.3% | viability, T/C (second compound 1 µM, first compound 0.01 µM) 26.8% | viability, T/C [21] 22.8% | viability, T/C [22] 18.2% | viability, T/C [23] 20.4% | viability, T/C [24] 21.1%
6.08: pIC50 (second compound 0.01 µM)
7.98: pIC50 (second compound 0.0316 µM)
< 6.00: pIC50 (second compound 0.00316 µM)
